# Measured values published in US20250312352A1, “GLP-1R MODULATING COMPOUNDS” (Gilead Sciences, Inc., priority 2021, published 2025).
# Molecular target: T1, GLP-1R (Homo sapiens, UniProt P43220)
# T1 construct: host or cells: CHO cells
# Test: GLP-1R activation cAMP assay (Assay 1 or Assay 2)
# Assay type: cell-based
# Conditions: cAMP increase in CHO cells stably expressing GLP-1R; compounds run on one of the two cAMP assays
# In short: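 CHO cells stably expressing human GLP-1R were incubated 1 h in HBSS/20 mM HEPES/0.1% BSA, then exposed to 10-point agonist dilutions for 30 min at 37 °C. cAMP increase was measured with an HTRF Gs dynamic kit; EC50 from sigmoidal fit of response versus log concentration.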
# T1 sequence (P43220 24-463): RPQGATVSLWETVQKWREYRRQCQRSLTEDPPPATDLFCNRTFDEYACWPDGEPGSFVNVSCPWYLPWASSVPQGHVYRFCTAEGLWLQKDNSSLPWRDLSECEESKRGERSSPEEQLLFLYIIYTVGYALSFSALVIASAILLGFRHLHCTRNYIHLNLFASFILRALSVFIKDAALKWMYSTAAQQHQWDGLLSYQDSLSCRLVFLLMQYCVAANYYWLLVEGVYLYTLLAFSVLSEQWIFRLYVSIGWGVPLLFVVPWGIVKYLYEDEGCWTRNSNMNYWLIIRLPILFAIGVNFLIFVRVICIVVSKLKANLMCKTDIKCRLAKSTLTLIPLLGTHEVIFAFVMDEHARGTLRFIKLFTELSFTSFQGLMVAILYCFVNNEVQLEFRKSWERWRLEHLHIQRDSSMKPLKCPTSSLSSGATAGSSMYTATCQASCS
row,SMILES,EC50
1,"N#Cc1cnc(COc2cccc(-c3cc(F)c(Cc4nc5c(F)cc(C(=O)O)cc5n4C[C@@H]4CCO4)cc3F)n2)s1 [Example 372, 2-[[4-[6-[(5-cyanothiazol-2-yl)methoxy]-2-pyridyl]-2,5-difluoro-phenyl]methyl]-7-fluoro-3-[[(2S)-oxetan-2-yl]methyl]benzimidazole-5-carboxylic acid]",0.024 nM
2,"O=C(O)c1ccc2nc(Cc3cc(F)c(-c4cccc(OCc5ccc(C#Cc6cncnc6)cc5)n4)cc3F)n(C[C@@H]3CCO3)c2c1 [Example 405, (S)-2-(2,5-difluoro-4-(6-((4-(pyrimidin-5-ylethynyl)benzyl)oxy)pyridin-2-yl)benzyl)-1-(oxetan-2-ylmethyl)-1H-benzo[d]imidazole-6-carboxylic acid]",0.363 nM
3,"O=C(O)c1cc(F)c2nc(Cc3cc(F)c(-c4ccc(F)c(OCc5ncc(-c6cnn(C(F)F)c6)s5)c4)cc3F)n(C[C@@H]3CCO3)c2c1 [Example 387, (S)-2-((3′-((5-(1-(difluoromethyl)-1H-pyrazol-4-yl)thiazol-2-yl)methoxy)-2,4′,5-trifluoro-[1,1′-biphenyl]-4-yl)methyl)-4-fluoro-1-(oxetan-2-ylmethyl)-1H-benzo[d]imidazole-6-carboxylic acid]",0.095 nM
4,"O=C(O)c1ccc2nc(Cc3cc(F)c(-c4cccc(OCc5ccc(C#Cc6cc[nH]c(=O)c6)cc5F)n4)cc3F)n(C[C@@H]3CCO3)c2c1 [Example 356, (S)-2-(2,5-difluoro-4-(6-((2-fluoro-4-((2-oxo-1,2-dihydropyridin-4-yl)ethynyl)benzyl)oxy)pyridin-2-yl)benzyl)-1-(oxetan-2-ylmethyl)-1H-benzo[d]imidazole-6-carboxylic acid]",0.099 nM
5,"Cn1cncc1C#Cc1cnc(COc2cccc(-c3cc(F)c(Cc4nc5ccc(C(=O)O)cc5n4C[C@@H]4CCO4)cc3F)n2)c(F)c1 [Example 293, (S)-2-(2,5-difluoro-4-(6-((3-fluoro-5-((1-methyl-1H-imidazol-5-yl)ethynyl)pyridin-2-yl)methoxy)pyridin-2-yl)benzyl)-1-(oxetan-2-ylmethyl)-1H-benzo[d]imidazole-6-carboxylic acid]",0.184 nM
6,"O=C(O)c1ccc2nc(Cc3cc(F)c(-c4cccc(OCc5ccc(C#Cc6cnn(C(F)F)c6)cc5F)n4)cc3F)n(C[C@@H]3CCO3)c2c1 [Example 287, (S)-2-(4-(6-((4-((1-(difluoromethyl)-1H-pyrazol-4-yl)ethynyl)-2-fluorobenzyl)oxy)pyridin-2-yl)-2,5-difluorobenzyl)-1-(oxetan-2-ylmethyl)-1H-benzo[d]imidazole-6-carboxylic acid]",0.185 nM
7,"O=C(O)c1ccc2nc(Cc3cc(F)c(-c4cccc(OCc5ccc(-n6cc(C7CC7)nn6)nc5)n4)cc3F)n(C[C@@H]3CCO3)c2c1 [Example 212, (S)-2-(4-(6-((6-(4-cyclopropyl-1H-1,2,3-triazol-1-yl)pyridin-3-yl)methoxy)pyridin-2-yl)-2,5-difluorobenzyl)-1-(oxetan-2-ylmethyl)-1H-benzo[d]imidazole-6-carboxylic acid]",0.1 nM
8,"O=C(O)c1ccc2nc(Cc3cc(F)c(-c4cccc(OCc5cc(C(F)(F)F)co5)n4)cc3F)n(C[C@@H]3CCO3)c2c1 [Example 18, (S)-2-(2,5-difluoro-4-(6-((4-(trifluoromethyl)furan-2-yl)methoxy)pyridin-2-yl)benzyl)-1-(oxetan-2-ylmethyl)-1H-benzo[d]imidazole-6-carboxylic acid]",0.32 nM
9,"N#CC1(NC(=O)c2cc(Cl)c(COc3cccc(-c4cc(F)c(Cc5nc6c(F)cc(C(=O)O)cc6n5C[C@@H]5CCO5)cc4F)n3)cn2)CCC1 [Example 190, (S)-2-(4-(6-((4-chloro-6-((1-cyanocyclobutyl)carbamoyl)pyridin-3-yl)methoxy)pyridin-2-yl)-2,5-difluorobenzyl)-4-fluoro-1-(oxetan-2-ylmethyl)-1H-benzo[d]imidazole-6-carboxylic acid]",0.2 nM
10,"Cn1cc(C#Cc2cc(Cl)c(COc3cccc(-c4cc(F)c(Cc5nc6ccc(C(=O)O)cc6n5C[C@@H]5CCO5)cc4F)n3)cn2)cn1 [Example 300, (S)-2-(4-(6-((4-chloro-6-((1-methyl-1H-pyrazol-4-yl)ethynyl)pyridin-3-yl)methoxy)pyridin-2-yl)-2,5-difluorobenzyl)-1-(oxetan-2-ylmethyl)-1H-benzo[d]imidazole-6-carboxylic acid]",0.823 nM

# The next lines start with the values.
row,EC50,SMILES
1,0.431 nM,"O=C(O)c1ccc2nc(Cc3cc(F)c(-c4cccc(OCc5nnc(C#CC6CC(F)(F)C6)s5)n4)cc3F)n(C[C@@H]3CCO3)c2c1 [Example 330, (S)-2-(4-(6-((5-((3,3-difluorocyclobutyl)ethynyl)-1,3,4-thiadiazol-2-yl)methoxy)pyridin-2-yl)-2,5-difluorobenzyl)-1-(oxetan-2-ylmethyl)-1H-benzo[d]imidazole-6-carboxylic acid]"
2,0.25 nM,"N#Cc1sc(COc2cccc(-c3cc(F)c(Cc4nc5ccc(C(=O)O)cc5n4C[C@@H]4CCO4)cc3F)n2)cc1F [Example 205, 2-[[4-[6-[(5-cyano-4-fluoro-2-thienyl)methoxy]-2-pyridyl]-2,5-difluoro-phenyl]methyl]-3-[[(2S)-oxetan-2-yl]methyl]benzimidazole-5-carboxylic acid]"
3,0.3 nM,"CC1(C#Cc2ccc(COc3cccc(-c4cc(F)c(Cc5nc6ccc(C(=O)O)cc6n5C[C@@H]5CCO5)cc4F)n3)c(F)c2)COC1 [Example 133, (S)-2-(2,5-difluoro-4-(6-((2-fluoro-4-((3-methyloxetan-3-yl)ethynyl)benzyl)oxy)pyridin-2-yl)benzyl)-1-(oxetan-2-ylmethyl)-1H-benzo[d]imidazole-6-carboxylic acid]"
4,0.955 nM,"Cn1nncc1C#Cc1ccc(COc2cccc(-c3cc(F)c(Cc4nc5ccc(C(=O)O)cc5n4C4COCC4(C)C)cc3F)n2)c(F)c1 (centres unmarked) [Example 279, 2-(2,5-difluoro-4-(6-((2-fluoro-4-((1-methyl-1H-1,2,3-triazol-5-yl)ethynyl)benzyl)oxy)pyridin-2-yl)benzyl)-1-(4,4-dimethyltetrahydrofuran-3-yl)-1H-benzo[d]imidazole-6-carboxylic acid]"
5,0.897 nM,"COc1nnc(COc2cccc(-c3cc(F)c(Cc4nc5ccc(C(=O)O)cc5n4CC4(CF)CC4)c(F)c3F)n2)s1 [Example 271, 1-((1-(fluoromethyl)cyclopropyl)methyl)-2-(2,3,6-trifluoro-4-(6-((5-methoxy-1,3,4-thiadiazol-2-yl)methoxy)pyridin-2-yl)benzyl)-1H-benzo[d]imidazole-6-carboxylic acid]"
6,0.475 nM,"COc1nnc(COc2nc(-c3cc(Cl)c(Cc4nc5ccc(C(=O)O)cc5n4[C@@H]4COCC4(C)C)cc3C)ccc2F)s1 [Example 441, (S)-2-(2-chloro-4-(5-fluoro-6-((5-methoxy-1,3,4-thiadiazol-2-yl)methoxy)pyridin-2-yl)-5-methylbenzyl)-1-(4,4-dimethyltetrahydrofuran-3-yl)-1H-benzo[d]imidazole-6-carboxylic acid]"
7,0.413 nM,"CC1(C)COC[C@H]1n1c(Cc2cc(F)c(-c3cccc(OCc4nnc(C(F)(F)F)s4)n3)cc2F)nc2ccc(C(=O)O)cc21 [Example 433, (S)-2-(2,5-difluoro-4-(6-((5-(trifluoromethyl)-1,3,4-thiadiazol-2-yl)methoxy)pyridin-2-yl)benzyl)-1-(4,4-dimethyltetrahydrofuran-3-yl)-1H-benzo[d]imidazole-6-carboxylic acid]"
8,0.14 nM,"Cn1cc(-c2cnc(COc3nc(-c4cc(F)c(Cc5nc6ccc(C(=O)O)cc6n5C[C@@H]5CCO5)cc4F)ccc3F)s2)cn1 [Example 99, (S)-2-(2,5-difluoro-4-(5-fluoro-6-((5-(1-methyl-1H-pyrazol-4-yl)thiazol-2-yl)methoxy)pyridin-2-yl)benzyl)-1-(oxetan-2-ylmethyl)-1H-benzo[d]imidazole-6-carboxylic acid]"
9,0.367 nM,"Cc1cc(Cc2nc3c(F)cc(C(=O)O)cc3n2[C@@H]2COCC2(C)C)c(F)cc1-c1ccc(F)c(OCc2ncc(C(F)(F)F)s2)n1 [Example 436, (S)-1-(4,4-dimethyltetrahydrofuran-3-yl)-4-fluoro-2-(2-fluoro-4-(5-fluoro-6-((5-(trifluoromethyl)thiazol-2-yl)methoxy)pyridin-2-yl)-5-methylbenzyl)-1H-benzo[d]imidazole-6-carboxylic acid]"
10,0.678 nM,"CCOc1nnc(COc2cccc(-c3cc(F)c(Cc4nc5ccc(C(=O)O)c(F)c5n4CCOC)cc3F)n2)s1 [Example 396, 2-(4-(6-((5-ethoxy-1,3,4-thiadiazol-2-yl)methoxy)pyridin-2-yl)-2,5-difluorobenzyl)-7-fluoro-1-(2-methoxyethyl)-1H-benzo[d]imidazole-6-carboxylic acid]"
11,0.191 nM,"COc1nnc(COc2nc(-c3cc(F)c(Cc4nc5ccc(C(=O)O)cc5n4[C@@H]4COCC4(C)C)c(F)c3F)ccc2F)s1 [Example 270, (S)-1-(4,4-dimethyltetrahydrofuran-3-yl)-2-(2,3,6-trifluoro-4-(5-fluoro-6-((5-methoxy-1,3,4-thiadiazol-2-yl)methoxy)pyridin-2-yl)benzyl)-1H-benzo[d]imidazole-6-carboxylic acid]"
12,0.336 nM,"CC1(C)COC[C@H]1n1c(Cc2cc(F)c(-c3ccc(F)c(OCc4ncc(C(F)F)s4)n3)cc2F)nc2ccc(C(=O)O)cc21 [Example 416, (S)-2-(4-(6-((5-(difluoromethyl)thiazol-2-yl)methoxy)-5-fluoropyridin-2-yl)-2,5-difluorobenzyl)-1-(4,4-dimethyltetrahydrofuran-3-yl)-1H-benzo[d]imidazole-6-carboxylic acid]"
13,0.041 nM,"CC1(C)COC[C@H]1n1c(Cc2ccc(-c3cccc(OCc4ccc(C#N)cc4F)n3)cc2F)nc2c(F)cc(C(=O)O)cc21 [Example 440, (S)-2-(4-(6-((4-cyano-2-fluorobenzyl)oxy)pyridin-2-yl)-2-fluorobenzyl)-1-(4,4-dimethyltetrahydrofuran-3-yl)-4-fluoro-1H-benzo[d]imidazole-6-carboxylic acid]"
